Data on 27 compounds can be found in PubChem BioAssay AID330 (DTP/NCI, 2004).

Several values for one entry are separate records, joined by “and”; a condition that tells them apart may be missing. Equal values may be shown once. Toxic doses and inconclusive results are not listed.

This test relates to P388 leukemia ip, CD2F1 mice, survival T/C. Description: NCI In Vivo Anticancer Drug Screen. Data for tumor model P388 Leukemia (intraperitoneal) in CD2F1 (CDF1) mice. The following applies: endpoint: median survival time, higher = longer survival. In short, it runs like this: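 Mice carrying the transplanted tumor received test compound or vehicle. Survival was recorded in each group, and the value is the treated-group measurement divided by that of the vehicle-treated control group.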

Where [1] appears, read: dose: 50.0 mg/kg/injection, schedule: Q01DX009 (ip), vehicle: saline with Tween-80.
The mark [2] stands for this setting: dose: 100.0 mg/kg/injection, schedule: Q01DX009 (ip), vehicle: saline with Tween-80.
Setting [3] is: dose: 200.0 mg/kg/injection, schedule: Q01DX009 (ip), vehicle: saline with Tween-80.
The mark [4] stands for this setting: dose: 50.0 mg/kg/injection, schedule: Q01DX005 (ip), vehicle: Klucel (hydroxypropylcellulose) (HPC).
The mark [5] stands for this setting: dose: 100.0 mg/kg/injection, schedule: Q01DX005 (ip), vehicle: Klucel (hydroxypropylcellulose) (HPC).
Where [6] appears, read: dose: 200.0 mg/kg/injection, schedule: Q01DX005 (ip), vehicle: Klucel (hydroxypropylcellulose) (HPC).
The mark [7] stands for this setting: dose: 50.0 mg/kg/injection, schedule: Q01DX009 (ip), vehicle: Klucel (hydroxypropylcellulose) (HPC).
[8] abbreviates: dose: 100.0 mg/kg/injection, schedule: Q01DX009 (ip), vehicle: Klucel (hydroxypropylcellulose) (HPC).
Where [9] appears, read: dose: 200.0 mg/kg/injection, schedule: Q01DX009 (ip), vehicle: Klucel (hydroxypropylcellulose) (HPC).
Where [10] appears, read: dose: 50.0 mg/kg/injection, schedule: Q01DX001 (ip), vehicle: Klucel (hydroxypropylcellulose) (HPC).
Where [11] appears, read: dose: 100.0 mg/kg/injection, schedule: Q01DX001 (ip), vehicle: Klucel (hydroxypropylcellulose) (HPC).
Setting [12] is: dose: 50.0 mg/kg/injection, schedule: Q01DX005 (ip), vehicle: saline with Tween-80.
The mark [13] stands for this setting: dose: 100.0 mg/kg/injection, schedule: Q01DX005 (ip), vehicle: saline with Tween-80.
Where [14] appears, read: dose: 200.0 mg/kg/injection, schedule: Q01DX005 (ip), vehicle: saline with Tween-80.
[15] abbreviates: dose: 12.5 mg/kg/injection, schedule: Q01DX009 (ip), vehicle: Klucel (hydroxypropylcellulose) (HPC).
Where [16] appears, read: dose: 25.0 mg/kg/injection, schedule: Q01DX009 (ip), vehicle: Klucel (hydroxypropylcellulose) (HPC).

On to `COc1ccc2cc1-c1cc(ccc1O)CCC(O)CC1CCCC(CC(O)CC2)N1` (stereo unspecified), for which the T/C (dose: 15.0 mg/kg/injection, schedule: Q01DX009 (ip), vehicle: Klucel (hydroxypropylcellulose) (HPC)) is 100 % of control and the T/C (dose: 30.0 mg/kg/injection, schedule: Q01DX009 (ip), vehicle: Klucel (hydroxypropylcellulose) (HPC)) is 107 % of control.
In the case of `CCN(CC)C(=O)CSc1ccc(Cl)nn1`, the T/C was 97 % of control under setting [1], 98 % of control under setting [2] and 94 % of control under setting [3].
As to `OCc1c(-c2ccc(Cl)cc2)c(-c2ccc(F)cc2)c2n1CCC2`, the T/C was 98 % of control under setting [4], 100 % of control under setting [5] and 103 % of control under setting [6].
As for `C(=C/c1cc2ccc(C3=NCCN3)cc2o1)/c1cc2ccc(C3=NCCN3)cc2[nH]1`, the T/C was 114 % of control (dose: 50.0 mg/kg/injection, schedule: Q04DX003 (ip), vehicle: suspension in saline); 158 % of control and 164 % of control (dose: 100.0 mg/kg/injection, schedule: Q04DX003 (ip), vehicle: suspension in saline); 298 % of control (dose: 200.0 mg/kg/injection, schedule: Q04DX003 (ip), vehicle: suspension in saline).
Turning to `Cc1c(C)c2ccc(N(C)C)cc2[nH]c1=O`, the T/C under setting [7] was 113 % of control, the T/C under setting [8] is 106 % of control and the T/C under setting [9] is 106 % of control.
Take `OC1(C2NCCc3ccccc32)CCN(CCc2ccccc2)CC1` (stereo unspecified): the T/C runs as follows: under setting [7], 87 % of control; under setting [8], 94 % of control.
Take `O=C(c1cccs1)c1ccc(Cl)cc1Cl`: the T/C under setting [7] was 107 % of control, the T/C under setting [8] is 103 % of control and the T/C under setting [9] is 104 % of control.
For `Oc1ccc(C(c2ccc(O)cc2)C(c2ccc(O)cc2)c2ccc(O)cc2)cc1`, the T/C is, setting by setting: under setting [1], 107 % of control; under setting [2], 100 % of control; under setting [3], 113 % of control.
`CCOC(=O)C(N=Nc1nn[nH]n1)c1ncn[nH]1` (stereo unspecified): the T/C is, setting by setting: under setting [10], 98 % of control; under setting [11], 98 % of control; (dose: 200.0 mg/kg/injection, schedule: Q01DX001 (ip), vehicle: Klucel (hydroxypropylcellulose) (HPC)) 91 % of control.
With `O=C(NC(Cc1cccs1)C(=O)O)c1ccccc1` (stereo unspecified), the T/C is 102 % of control (dose: 25.0 mg/kg/injection, schedule: Q01DX009 (ip), vehicle: other); 96 % of control (dose: 50.0 mg/kg/injection, schedule: Q01DX009 (ip), vehicle: other); 102 % of control (dose: 100.0 mg/kg/injection, schedule: Q01DX009 (ip), vehicle: other).
In the case of `COc1ccccc1N=C1SCC(=O)N1Cc1ccco1`, the T/C is, setting by setting: under setting [1], 95 % of control; under setting [2], 95 % of control; under setting [3], 92 % of control.
For the compound `O=P(O)(O)SP(=O)(O)O.[Co]`, the T/C is 105 % of control under setting [7] and 94 % of control under setting [8].
`Cc1cccc(NC(=S)NNc2nnc(-c3ccccc3)c(-c3ccccc3)n2)c1`: the T/C was 90 % of control under setting [12], 99 % of control under setting [13] and 100 % of control under setting [14].
On to `N/C(=N\OC(=O)Nc1ccc(CSc2ccc(Cl)cc2)o1)c1ccccn1`, for which the T/C is, setting by setting: (dose: 12.5 mg/kg/injection, schedule: Q01DX005 (ip), vehicle: Klucel (hydroxypropylcellulose) (HPC)) 106 % of control and 109 % of control; (dose: 25.0 mg/kg/injection, schedule: Q01DX005 (ip), vehicle: Klucel (hydroxypropylcellulose) (HPC)) 107 % of control and 110 % of control; under setting [4], 110 % of control and 114 % of control and 120 % of control; under setting [5], 109 % of control and 111 % of control.
Consider `NC(=O)C1(Br)C=[N+](Cc2ccccc2)CCC1` (stereo unspecified), for which the T/C (dose: 60.0 mg/kg/injection, schedule: Q01DX005 (ip), vehicle: saline) is 103 % of control and the T/C (dose: 120.0 mg/kg/injection, schedule: Q01DX005 (ip), vehicle: saline) is 95 % of control.
With `CN=C(N)N/N=C(C)/C(C)=C/c1ccccc1`, the T/C (dose: 25.0 mg/kg/injection, schedule: Q04DX002 (ip), vehicle: saline with Tween-80) is 104 % of control.
On to `CCCCNC(=O)Nc1cccc2c(O)cccc12`, for which the T/C (dose: 6.25 mg/kg/injection, schedule: Q01DX009 (ip), vehicle: DMSO) is 94 % of control; the T/C (dose: 12.5 mg/kg/injection, schedule: Q01DX009 (ip), vehicle: DMSO) is 87 % of control; the T/C (dose: 25.0 mg/kg/injection, schedule: Q01DX009 (ip), vehicle: DMSO) was 87 % of control.
Take `C[C@H]1C[C@](C)(CO)Oc2oc3ccccc3c(=O)c21`: the T/C was 108 % of control (dose: 60.0 mg/kg/injection, schedule: Q01DX005 (ip), vehicle: saline with Tween-80); 109 % of control (dose: 120.0 mg/kg/injection, schedule: Q01DX005 (ip), vehicle: saline with Tween-80); 111 % of control (dose: 240.0 mg/kg/injection, schedule: Q01DX005 (ip), vehicle: saline with Tween-80).
As to `COc1cc(-c2nn(CN3CCN(Cn4nc(-c5cc(OC)c(OC)c(OC)c5)oc4=S)CC3)c(=S)o2)cc(OC)c1OC`, the T/C is, setting by setting: under setting [4], 97 % of control; under setting [5], 87 % of control; under setting [6], 93 % of control.
As for `C=C(C)C1CC2(C)C(C)CC(OC(=O)/C(C)=C\C)CC2C(OC(=O)/C(C)=C\C)C1O` (stereo unspecified), the T/C runs as follows: under setting [15], 86 % of control; under setting [16], 96 % of control; under setting [7], 96 % of control; under setting [8], 100 % of control.
With `CC(=O)NCCNC(Cc1ccccc1)C(=O)O` (stereo unspecified), the T/C is 108 % of control (dose: 25.0 mg/kg/injection, schedule: Q01DX001 (ip), vehicle: Klucel (hydroxypropylcellulose) (HPC)); 101 % of control under setting [10]; 100 % of control and 101 % of control under setting [11].
For the compound `O=C1NC(=O)C(C(=O)Nc2ccc(Cl)cc2)c2ccccc21` (stereo unspecified), the T/C by setting is: under setting [4], 101 % of control; under setting [5], 95 % of control; under setting [6], 99 % of control.
In the case of `CN1CCN(CC(O)COc2c3ccccc3nc3ccccc23)CC1` (stereo unspecified), the T/C under setting [12] is 104 % of control and the T/C under setting [13] was 95 % of control.
As for `[O-]c1on[n+](-c2ccccc2-n2cccn2)c1-c1ccccc1`, the T/C by setting is: (dose: 100.0 mg/kg/injection, schedule: Q01DX001 (ip), vehicle: saline with Tween-80) 90 % of control; (dose: 200.0 mg/kg/injection, schedule: Q01DX001 (ip), vehicle: saline with Tween-80) 91 % of control; (dose: 400.0 mg/kg/injection, schedule: Q01DX001 (ip), vehicle: saline with Tween-80) 90 % of control.
Consider `CC1NC(=O)N(C(C)C)C1=O` (stereo unspecified), for which the T/C is 100 % of control under setting [12], 100 % of control under setting [13] and 106 % of control under setting [14].
For `C=CCn1c(NC2=C(Cl)C(=O)c3ccccc3C2=O)cc(=O)[nH]c1=O`, the T/C was 104 % of control under setting [15]; 98 % of control under setting [16]; 99 % of control and 98 % of control under setting [7].
Consider `Nc1nc(N)c(-c2ccc(Cl)cc2)c(COc2ccc(NC(=O)c3ccc(NC(=O)CCl)cc3)cc2)n1`, for which the T/C by setting is: (dose: 25.0 mg/kg/injection, schedule: Q01DX001 (ip), vehicle: saline) 104 % of control; (dose: 50.0 mg/kg/injection, schedule: Q01DX001 (ip), vehicle: saline) 107 % of control; (dose: 100.0 mg/kg/injection, schedule: Q01DX001 (ip), vehicle: saline) 114 % of control.
